Reference: patent publication US12139487B2, “Compounds and uses thereof” (Foghorn Therapeutics Inc., priority 2022, dated 2024)

What was measured:
BRG-1 = target: T1, BRG-1 (Homo sapiens, UniProt P51532); experiment: ATPase catalytic activity assay (ADP-Glo), BRG-1; type: biochemical; conditions: Table 10, read-out: BRG1 IC50
T1 construct: made in house; host or cells: High Five insect cells
Outline: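 Once the ATPase reaction finished, leftover ATP was depleted over 40 minutes at room temperature. Generated ADP was next turned back into ATP during a 60-minute room-temperature step. Luciferase-derived light was then measured.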

BRM = target: T2, BRM (Homo sapiens, UniProt P51531); experiment: ATPase catalytic activity assay (ADP-Glo), BRM; type: biochemical; conditions: Table 10; for Ratio (BRG1 IC50 (μM) divided by BRM IC50 (μM)): ATPase assay, selectivity BRG1/BRM; for IC50: ATPase catalytic activity assay (ADP-Glo)
T2 construct: made in house; host or cells: High Five insect cells
T2 sequence (P51531 whole entry): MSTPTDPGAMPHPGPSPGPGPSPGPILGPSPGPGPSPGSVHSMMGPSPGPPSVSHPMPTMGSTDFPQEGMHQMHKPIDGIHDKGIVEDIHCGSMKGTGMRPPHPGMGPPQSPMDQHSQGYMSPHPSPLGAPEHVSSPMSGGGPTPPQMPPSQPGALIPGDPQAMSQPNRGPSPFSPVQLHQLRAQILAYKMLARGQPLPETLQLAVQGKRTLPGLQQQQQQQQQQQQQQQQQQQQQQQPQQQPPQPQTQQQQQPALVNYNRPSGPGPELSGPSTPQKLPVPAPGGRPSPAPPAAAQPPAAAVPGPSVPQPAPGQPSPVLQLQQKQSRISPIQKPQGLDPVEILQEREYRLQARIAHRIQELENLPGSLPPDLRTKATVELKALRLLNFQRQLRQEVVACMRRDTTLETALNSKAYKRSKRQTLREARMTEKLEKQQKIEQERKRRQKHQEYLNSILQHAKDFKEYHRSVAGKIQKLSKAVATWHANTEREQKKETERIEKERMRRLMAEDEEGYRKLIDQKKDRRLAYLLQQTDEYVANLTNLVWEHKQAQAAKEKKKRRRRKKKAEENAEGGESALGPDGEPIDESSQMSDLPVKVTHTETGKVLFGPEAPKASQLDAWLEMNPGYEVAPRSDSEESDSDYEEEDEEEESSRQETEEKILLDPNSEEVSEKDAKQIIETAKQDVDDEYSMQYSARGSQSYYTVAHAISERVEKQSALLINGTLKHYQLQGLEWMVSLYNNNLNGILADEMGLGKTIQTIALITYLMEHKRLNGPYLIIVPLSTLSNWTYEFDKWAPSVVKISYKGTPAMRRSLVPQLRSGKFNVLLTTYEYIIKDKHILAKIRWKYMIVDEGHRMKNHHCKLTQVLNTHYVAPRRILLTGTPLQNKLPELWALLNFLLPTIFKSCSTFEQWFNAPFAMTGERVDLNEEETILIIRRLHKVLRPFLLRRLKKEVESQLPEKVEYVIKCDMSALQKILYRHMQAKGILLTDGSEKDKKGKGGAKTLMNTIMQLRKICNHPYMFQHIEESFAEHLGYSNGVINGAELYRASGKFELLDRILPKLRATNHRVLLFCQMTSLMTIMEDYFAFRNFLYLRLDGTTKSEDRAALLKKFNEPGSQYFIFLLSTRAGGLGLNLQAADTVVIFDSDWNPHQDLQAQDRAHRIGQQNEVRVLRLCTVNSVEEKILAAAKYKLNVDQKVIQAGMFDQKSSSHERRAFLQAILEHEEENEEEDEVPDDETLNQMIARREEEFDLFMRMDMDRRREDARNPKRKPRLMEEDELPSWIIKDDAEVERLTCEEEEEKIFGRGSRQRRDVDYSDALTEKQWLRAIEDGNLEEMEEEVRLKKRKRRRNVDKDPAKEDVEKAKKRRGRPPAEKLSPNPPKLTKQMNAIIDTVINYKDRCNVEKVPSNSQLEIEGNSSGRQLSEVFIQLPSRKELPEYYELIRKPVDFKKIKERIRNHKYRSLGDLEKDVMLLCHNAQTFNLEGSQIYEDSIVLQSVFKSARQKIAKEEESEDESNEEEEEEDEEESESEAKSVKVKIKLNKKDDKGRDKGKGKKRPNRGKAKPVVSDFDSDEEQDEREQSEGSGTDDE
Outline: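 ADP-Glo luminescence measures ADP produced by BRM ATPase (30 nM) during 1 h at room temperature. ATP is 400 μM, with 20 nM salmon sperm DNA as cofactor. Buffer: 20 mM Tris pH 8, 20 mM MgCl2, 50 mM NaCl, 0.1% Tween-20, 1 mM DTT.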

T1 sequence (P51532 whole entry): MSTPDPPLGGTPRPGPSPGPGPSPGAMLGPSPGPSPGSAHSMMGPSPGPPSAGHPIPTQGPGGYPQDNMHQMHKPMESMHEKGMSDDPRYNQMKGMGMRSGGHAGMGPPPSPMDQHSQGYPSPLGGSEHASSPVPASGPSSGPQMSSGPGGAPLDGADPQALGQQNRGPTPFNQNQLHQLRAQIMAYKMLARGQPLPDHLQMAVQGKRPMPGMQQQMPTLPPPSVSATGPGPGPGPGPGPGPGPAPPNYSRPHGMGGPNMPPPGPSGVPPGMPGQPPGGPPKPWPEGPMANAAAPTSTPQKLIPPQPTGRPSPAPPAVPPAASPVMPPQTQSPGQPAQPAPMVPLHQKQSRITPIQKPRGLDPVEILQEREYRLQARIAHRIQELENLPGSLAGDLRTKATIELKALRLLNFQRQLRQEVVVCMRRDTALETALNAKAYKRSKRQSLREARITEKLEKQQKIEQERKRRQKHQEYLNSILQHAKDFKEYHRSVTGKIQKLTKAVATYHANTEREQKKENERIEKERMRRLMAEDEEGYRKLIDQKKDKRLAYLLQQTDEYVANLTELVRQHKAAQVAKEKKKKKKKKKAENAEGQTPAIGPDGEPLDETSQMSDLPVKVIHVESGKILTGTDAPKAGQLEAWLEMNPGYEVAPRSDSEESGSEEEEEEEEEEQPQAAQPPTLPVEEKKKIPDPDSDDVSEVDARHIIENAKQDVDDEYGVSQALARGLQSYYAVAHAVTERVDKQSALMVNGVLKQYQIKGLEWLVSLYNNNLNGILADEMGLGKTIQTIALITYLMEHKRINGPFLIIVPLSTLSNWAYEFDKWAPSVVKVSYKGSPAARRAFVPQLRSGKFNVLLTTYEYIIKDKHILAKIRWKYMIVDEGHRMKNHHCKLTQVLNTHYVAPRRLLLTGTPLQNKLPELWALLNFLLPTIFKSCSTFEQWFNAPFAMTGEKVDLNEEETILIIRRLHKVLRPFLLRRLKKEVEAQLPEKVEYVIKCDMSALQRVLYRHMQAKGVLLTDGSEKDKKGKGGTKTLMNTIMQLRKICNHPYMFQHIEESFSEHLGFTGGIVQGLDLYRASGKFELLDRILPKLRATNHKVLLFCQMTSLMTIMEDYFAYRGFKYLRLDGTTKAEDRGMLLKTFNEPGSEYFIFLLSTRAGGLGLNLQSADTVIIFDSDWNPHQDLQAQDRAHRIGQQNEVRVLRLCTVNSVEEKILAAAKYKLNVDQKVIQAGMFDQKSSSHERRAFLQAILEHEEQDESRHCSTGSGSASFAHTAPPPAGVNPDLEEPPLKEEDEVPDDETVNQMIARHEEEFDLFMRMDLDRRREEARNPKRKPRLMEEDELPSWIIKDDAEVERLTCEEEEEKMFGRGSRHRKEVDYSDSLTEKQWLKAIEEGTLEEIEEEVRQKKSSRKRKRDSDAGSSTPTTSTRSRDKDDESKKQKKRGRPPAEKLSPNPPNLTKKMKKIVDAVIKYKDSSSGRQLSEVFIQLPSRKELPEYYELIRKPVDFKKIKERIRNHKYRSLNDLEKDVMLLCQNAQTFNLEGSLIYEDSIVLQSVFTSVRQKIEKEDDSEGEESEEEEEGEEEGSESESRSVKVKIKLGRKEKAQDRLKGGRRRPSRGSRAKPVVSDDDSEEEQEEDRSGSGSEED

SMILES | IC50 (BRG-1) [nM] | Ratio (BRG1 IC50 (μM) divided by BRM IC50 (μM)) (BRM) | IC50 (BRM) [nM]
COCCc1cnc2c(c1)OCCN2c1ccc2cnc(CNC(=O)c3cc(F)c4c(c3)S(=O)(=O)[C@@H](F)CCO4)cc2n1 [Compound 201] | 64 | 10.41 | 6.1
O=C(NCc1cc2nc(N3CCOc4cc([C@H]5CC5(F)F)cnc43)ccc2cn1)c1cc(F)c2c(c1)S(=O)(=O)[C@@H](F)CCO2 [Compound 166] | 83.8 | 15.93 | 5.3
CO[C@H]1C[C@H]1c1cnc2c(c1)OCCN2c1ccc2cnc(CNC(=O)c3cc(F)c4c(c3)S(=O)(=O)[C@@H](F)CCO4)cc2n1 [Compound 45] | 25.8 | 12.59 | 2.1
O=C(NCc1cc2nc(-c3ccnc(N4CCC4)n3)ccc2cn1)c1cc(F)c2c(c1)S(=O)(=O)[C@@H](F)COC2 [Compound 228] | 108 | 14.53 | 7.1
O=C(NCc1cc2nc(N3CCCc4sc(C(F)F)nc43)ccc2cn1)c1cc(F)c2c(c1)S(=O)(=O)[C@@H](F)CCO2 [Compound 217] | 63.4 | 9.68 | 6.5
C[C@H]1[C@@H](F)CN1c1cnc2c(c1)OCCN2c1ccc2cnc(CNC(=O)c3cc(F)c4c(c3)S(=O)(=O)[C@@H](F)CCO4)cc2n1 [Compound 69] | 37.5 | 13.99 | 2.7
O=C(NCc1cc2nc(N3CCOc4cc(C5CC5)cnc43)ccc2cn1)c1cc(F)c2c(c1)S(=O)(=O)[C@@H](F)CCO2 [Compound 40] | 38.5 | 16.70 | 2
[2H]C1([2H])OC([2H])([2H])[C@H](F)S(=O)(=O)c2cc(C(=O)NCc3cc4nc(N5CCOc6ccc(C7CC7)nc65)ccc4cn3)cc(F)c21 [Compound 59] | 72.5 | – | 2.5
CC#Cc1cnc2c(c1)OCCN2c1ccc2cnc(CNC(=O)c3cc(F)c4c(c3)S(=O)(=O)[C@@H](F)COC4)cc2n1 [Compound 239] | 93.2 | 12.22 | 7.6
C[C@H]1N(c2cnc3c(c2)OCCN3c2ccc3cnc(CNC(=O)c4cc(F)c5c(c4)S(=O)(=O)[C@@H](F)CCO5)cc3n2)CC1(F)F [Compound 269] | 110 | 11.77 | 8.9
O=C(NCc1cc2nc(N3CCCc4cc(N5C[C@@H](F)[C@H](F)C5)cnc43)ccc2cn1)c1cc(F)c2c(c1)S(=O)(=O)[C@@H](F)CCO2 [Compound 168] | 79.5 | 15.00 | 5.3
O=C(NCc1cc2nc(N3CCOc4ccc(C5CC5)nc43)ccc2cn1)c1ccc2c(c1)S(=O)(=O)[C@@H](F)COC2 [Compound 39] | 24.6 | 13.44 | 2
O=C(NCc1cc2nc(N3CCOc4cc(N5C[C@H](F)[C@@H](F)C5)cnc43)ccc2cn1)c1cc(F)c2c(c1)S(=O)(=O)[C@@H](F)CCO2 [Compound 138] | 88.2 | 18.95 | 4.7
COc1cnc2c(c1)OCCN2c1ccc2cnc(CNC(=O)c3cc(F)c4c(c3)S(=O)(=O)[C@@H](F)CCO4)cc2c1 [Compound 153] | 69.5 | 13.92 | 5
O=C(NCc1cc2nc(N3CCOc4cc(N5CCC5)cnc43)ccc2cn1)c1ccc2c(c1)S(=O)(=O)[C@@H](F)CCO2 [Compound 187] | 76.6 | 13.32 | 5.8
Cc1cc(C(=O)NCc2cc3nc(N4CCOc5cc(N6CC[C@H]6C)cnc54)ccc3cn2)cc2c1COC[C@H](F)S2(=O)=O [Compound 28] | 42.2 | 22.66 | 1.8
C[C@@H]1CN(c2cccc(-c3ccc4cnc(CNC(=O)c5ccc6c(c5)S(=O)(=O)[C@H](F)CO[C@H]6C)cc4n3)n2)C[C@H](C)O1 [Compound 200] | 101 | 16.77 | 6.1
C[C@@H]1[C@@H](F)CN1c1cnc2c(c1)OCCN2c1ccc2cnc(CNC(=O)c3cc(F)c4c(c3)S(=O)(=O)[C@@H](F)CCO4)cc2n1 [Compound 80] | 48.4 | 16.24 | 3
O=C(NCc1cc2nc(N3CCOc4cc(C5(C(F)F)CC5)cnc43)ccc2cn1)c1cc(F)c2c(c1)S(=O)(=O)[C@@H](F)CCO2 [Compound 70] | 39.6 | 12.79 | 2.7

Other lines, results leading:

IC50 (BRG-1) [nM] | Ratio (BRG1 IC50 (μM) divided by BRM IC50 (μM)) (BRM) | IC50 (BRM) [nM] | SMILES
3510 | 28.75 | 122 | C[C@@H]1CN(c2cccc(-c3ccc4cnc(CNC(=O)c5cc(F)c6c(c5)S(=O)(=O)[C@@H](F)CO6)cc4n3)n2)C[C@H](C)O1 [Compound 326]
174 | 22.02 | 8.9 | COc1cccc(-c2ccc3cnc(CNC(=O)c4cc(F)c5c(c4)S(=O)(=O)[C@@H](F)COC5)cc3n2)n1 [Compound 270]
82.6 | 17.59 | 4.9 | C[C@@H]1CN(c2cccc(-c3ccc4cnc(CNC(=O)c5cc(Cl)c6c(c5)S(=O)(=O)[C@@H](F)CCO6)cc4n3)n2)C[C@H](C)O1 [Compound 148, (R)-9-chloro-N-((2-(6-((2S,6R)-2,6-dimethylmorpholino)pyridin-2-yl)-1,6-naphthyridin-7-yl)methyl)-4-fluoro-3,4-dihydro-2H-benzo[b][1,4]oxathiepine-7-carboxamide 5,5-dioxide]
97 | 23.13 | 5 | O=C(NCc1cc2nc(N3CCOc4ccc([C@@H]5C[C@H]5F)nc43)ccc2cn1)c1cc(F)c2c(c1)S(=O)(=O)[C@@H](F)CCO2 [Compound 156]
62.1 | 10.64 | 5.8 | Cn1ccc2c(-c3ccc4cnc(CNC(=O)c5cc(F)c6c(c5)S(=O)(=O)[C@@H](F)CCO6)cc4n3)cccc21 [Compound 191]
110 | 21.73 | 5.7 | O=C(NCc1cc2nc(N3CCOc4ccc(C(F)F)nc43)ccc2cn1)c1cc(F)c2c(c1)S(=O)(=O)[C@@H](F)CCO2 [Compound 185]
178 | 30.21 | 5.5 | COc1nc([C@H](C)F)ccc1-c1ccc2cnc(CNC(=O)c3cc(F)c4c(c3)S(=O)(=O)[C@@H](F)CCO4)cc2n1 [Compound 173]
461 | 49.95 | 7.1 | O=C(NCc1cc2nc(-c3cccc(OC(F)F)n3)ccc2cn1)c1cc(Cl)c2c(c1)S(=O)(=O)[C@@H](F)CCO2 [Compound 225]
10.5 | 18.80 | 0.6 | COCCn1c(C)cc2c(-c3ccc4cnc(CNC(=O)c5cc(F)c6c(c5)S(=O)(=O)[C@@H](F)CCO6)cc4n3)cccc21 [Compound 2]
69.4 | 15.35 | 3.9 | C#Cc1ccc2c(n1)N(c1ccc3cnc(CNC(=O)c4cc(F)c5c(c4)S(=O)(=O)[C@@H](F)CCO5)cc3n1)CCO2 [Compound 110]
